Measurements: ChEMBL document CHEMBL1130961, “The development of novel and selective p56lck tyrosine kinase inhibitors” (Bioorg Med Chem Lett, 1998)

Legend:
[1] = target: Tyrosine-protein kinase Lck (Homo sapiens, UniProt P06239); experiment: Inhibition of p56 Lck tyrosine kinase
[2] = target: cAMP-dependent protein kinase (PKA) (Homo sapiens, UniProt P22694+P17612+P22612); experiment: Inhibition of Protein Kinase A (PKA); format: protein assay
[3] = target: Proto-oncogene tyrosine-protein kinase Src (Homo sapiens, UniProt P12931); experiment: Inhibition of Src tyrosine kinase
Proto-oncogene tyrosine-protein kinase Src, sequence (P12931 2-536 limits assumed): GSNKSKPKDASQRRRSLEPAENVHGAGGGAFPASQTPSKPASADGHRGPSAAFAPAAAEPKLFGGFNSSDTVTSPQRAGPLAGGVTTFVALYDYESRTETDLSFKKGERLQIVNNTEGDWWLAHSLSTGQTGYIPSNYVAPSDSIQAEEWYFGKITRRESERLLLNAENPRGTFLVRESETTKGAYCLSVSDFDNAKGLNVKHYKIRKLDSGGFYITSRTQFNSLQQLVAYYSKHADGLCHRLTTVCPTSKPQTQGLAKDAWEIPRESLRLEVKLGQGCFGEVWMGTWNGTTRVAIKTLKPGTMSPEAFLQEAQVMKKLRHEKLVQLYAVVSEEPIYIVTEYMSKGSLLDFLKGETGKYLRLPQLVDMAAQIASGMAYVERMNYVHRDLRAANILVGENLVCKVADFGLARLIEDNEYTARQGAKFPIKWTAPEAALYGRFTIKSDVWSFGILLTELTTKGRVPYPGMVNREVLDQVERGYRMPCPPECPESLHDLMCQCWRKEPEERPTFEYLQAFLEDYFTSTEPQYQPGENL

Tyrosine-protein kinase Lck, sequence (P06239 whole entry): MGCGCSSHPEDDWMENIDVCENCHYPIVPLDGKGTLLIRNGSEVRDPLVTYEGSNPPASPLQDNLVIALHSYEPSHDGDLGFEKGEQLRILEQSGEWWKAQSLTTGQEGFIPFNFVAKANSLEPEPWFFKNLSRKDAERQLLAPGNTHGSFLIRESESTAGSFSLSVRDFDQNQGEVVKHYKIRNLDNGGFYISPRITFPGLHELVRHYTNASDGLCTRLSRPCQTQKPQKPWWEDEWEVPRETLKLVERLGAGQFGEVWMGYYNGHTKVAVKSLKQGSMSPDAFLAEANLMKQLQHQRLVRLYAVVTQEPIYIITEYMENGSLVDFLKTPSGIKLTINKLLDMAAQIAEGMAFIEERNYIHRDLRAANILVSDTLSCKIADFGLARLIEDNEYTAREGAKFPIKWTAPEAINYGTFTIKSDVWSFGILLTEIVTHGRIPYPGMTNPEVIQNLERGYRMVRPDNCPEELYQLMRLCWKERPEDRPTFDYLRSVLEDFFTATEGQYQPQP

## COc1cc(C=C2C(=O)c3cc(Cl)c(Cl)cc3C2=O)cc(Br)c1O
[1]
  IC50: 1700 nM

## COc1cc(C=C2C(=O)c3cc(Cl)c(Cl)cc3C2=O)ccc1O
[1]
  IC50: 5000 nM

## O=C1/C(=C\c2cc(Br)c(O)c(Br)c2)C(=O)c2cc([N+](=O)[O-])ccc21
[1]
  IC50: > 5000 nM

## COc1ccc2c(c1)C(=O)/C(=C/c1cc(Br)c(O)c(OC)c1)C2=O
[1]
  IC50: 880 nM

## Nc1ccc2c(c1)C(=O)/C(=C/c1cc(Br)c(O)c(Br)c1)C2
[1]
  IC50: 710 nM

## COc1cc2c(cc1OC)C(=O)C(=Cc1cc(Cl)c(O)c(Cl)c1)C2=O
[1]
  IC50: 310 nM

## O=C1/C(=C/c2ccc(O)c(O)c2)C(=O)c2cc([N+](=O)[O-])ccc21
[1]
  IC50: > 5000 nM

## COc1cc(/C=C2\C(=O)c3ccc(N)cc3C2=O)cc(OC)c1O
[1]
  IC50: 1700 nM

## Nc1ccc2c(c1)C(=O)/C(=C/c1ccc(O)c(O)c1)C2=O
[1]
  IC50: 600 nM

## Nc1cccc2c1C(=O)/C(=C\c1cc(Br)c(O)c(Br)c1)C2=O
[1]
  IC50: 470 nM

## O=C1/C(=C\c2cc(Br)c(O)c(Br)c2)C(=O)c2cc(Br)ccc21
[1]
  IC50: 1000 nM

## O=C1C(=Cc2cc(Br)c(O)c(Br)c2)C(=O)c2ccccc21
[1]
  IC50: 740 nM

## COc1ccc2c(c1)C(=O)/C(=C/c1cc(Br)c(O)c(Br)c1)C2=O
[2]
  IC50: 10000 nM
[3]
  IC50: > 50000 nM
[1]
  IC50: 144 nM

## COc1ccc2c(c1)C(=O)/C(=C/c1ccc(O)c(O)c1)C2=O
[1]
  IC50: 1500 nM

## O=C1/C(=C/c2cc(Cl)c(O)c(Cl)c2)C(=O)c2c1cccc2[N+](=O)[O-]
[1]
  IC50: 1400 nM

## O=C1C(=Cc2ccc(O)c(O)c2)C(=O)c2ccccc21
[1]
  IC50: 5000 nM

## COc1cc2c(cc1OC)C(=O)C(=Cc1cc(Br)c(O)c(Br)c1)C2=O
[1]
  IC50: 110 nM

## O=C1/C(=C/c2ccc(O)c(O)c2)C(=O)c2c1cccc2[N+](=O)[O-]
[1]
  IC50: 5000 nM

## Nc1ccc2c(c1)C(=O)/C(=C/c1cc(Br)c(O)c(Br)c1)C2=O
[2]
  IC50: 8000 nM
[3]
  IC50: 460 nM
[1]
  IC50: 32 nM

## Nc1ccc2c(c1)C(=O)/C(=C/c1cc(Cl)c(O)c(Cl)c1)C2=O
[2]
  IC50: 5000 nM
[3]
  IC50: 3500 nM
[1]
  IC50: 102 nM

## Nc1ccc2c(c1)C/C(=C\c1cc(Br)c(O)c(Br)c1)C2=O
[1]
  IC50: 5000 nM
